Assay results reported in patent US6562464B1, “Utilization of phenylglyoxalic acid esters as photoinitiators” (BASF Aktiengesellschaft, priority 1999, dated 2003).
Read-outs that look alike come from different tables or passages of the source.

Legend:
Format in all cases: physicochemical
[1] = Solubility in hexanediol diacrylate (HDDA); parameters: key: sol = soluble; insol = insoluble
Text: a) Solubility in hexanediol diacrylate (HDDA)

[2] = Solubility in an aliphatic urethane acrylate; conditions: 2%
Experimental: b) The solubility of 2% each of 1,4-cyclohexanedimethanol di(phenylglyoxylate) and 4,4′-isopropylidenedicyclohexanol di(phenylglyoxylate) in an aliphatic urethane acrylate was also tested.

[3] = Solubility in Laromer LR 8987
Text: Using a box-type coating bar, a glass plate was coated with this formulation so as to form a film having a thickness of 50 μm or 100 μm. This film was subsequently cured in an IST belt exposure unit at 10 m/min under air.
4 parts of 4,4′-isopropylidenedicyclohexanol di(phenylglyoxylate) [hydrogenated bisphenol-A-di(phenylglyoxylate)] were insoluble in 96 parts of Laromer LR 8987. Therefore, radiation curing was not possible.
However, the solubility was sufficient to prepare and cure a film as described above.

[4] = Weight loss after 3 hours at 130° C.
Experimental: 12.0 g of pentaerythritol, 42.8 g of phenylglyoxylic acid and 0.27 g of sulfuric acid are suspended in 17.8 g of methylcyclohexane and the suspension is heated under reflux. The water of esterification is removed via a separating vessel, so that the esterification reaction is at an end after 8 hours. Distillation of the methylcyclohexane leaves a solid melt (acid number 25 mg KOH/g). The weight loss after 3 hours at 130° C. is 7.3%.
21.4 g of 1,4-butanediol diglycidyl ether (Araldit DY026) are mixed with 30 g of phenylglyoxylic acid in the presence of 0.5 g of tetrabutylammonium bromide. The mixture is cautiously heated to 103° C. and is held at this temperature for 5 hours until the acid number has fallen to 7.2 mg KOH/g. The product is a highly viscous liquid (153.6 Pas). The weight loss after 3 hours at 130° C. is 0.7%.
28.84 g of 1,4-bis(hydroxymethyl)cyclohexane, 72.23 g of methyl phenylglyoxylate and 0.82 g of dibutoxydibutyltin are melted over 180° C. in a reaction flask and methanol is distilled off via a column. After virtually all of the theoretical amount of methanol has passed over, the residue is concentrated on a rotary evaporator, the concentrate is digested in ethanol, and the resulting solid is filtered off with suction. The IR and H-NMR spectra correspond to the expected structure. The melting point is 92° C. The weight loss after 3 hours at 130° C. is 0.5%.

| Solubility in hexanediol diacrylate (HDDA) ([1]; 3%) | solubility in Laromer LR 8987 [3] | Compound | Solubility in hexanediol diacrylate (HDDA) ([1]; 1%) | Solubility in hexanediol diacrylate (HDDA) ([1]; 2%) | solubility in an aliphatic urethane acrylate [2] | solubility in Laromer LR 8987 ([3]; 4 parts in 96 parts of Laromer LR 8987 (mixture of hexanediol diacrylate and an aliphatic urethane acrylate)) | weight loss after 3 hours at 130° C. [4] |
| --- | --- | --- | --- | --- | --- | --- | --- |
| – | – | 4,4′-isopropylidenedicyclohexanol di(phenylglyoxylate) | sol | in- | insoluble or did not dissolve completely | insoluble | – |
| – | – | O=CC(=O)OCC(COC(=O)C=O)(COC(=O)C=O)COC(=O)C=O [Example 1, Pentaerythritol Tetraglyoxylate] | – | – | – | – | 7.3% |
| in- | did not dissolve completely | O=C(OC1CCC(OC(=O)C(=O)c2ccccc2)CC1)C(=O)c1ccccc1 (stereo not shown) [1,4-cyclohexanediol di(phenylglyoxylate)] | sol | sol | – | – | – |
| – | – | 1,4-Butanediol Diglycidyl Ether Diglyoxylate [Example 2] | – | – | – | – | 0.7% |
